Laboratory results reported in US9670161B2, “5-fluoro-N-(pyridin-2-yl)pyridin-2-amine derivatives containing a sulfone group” (BAYER PHARMA AKTIENGESELLSCHAFT, priority 2012, dated 2017).

Experiments:
[1] = system: A2780, human ovarian carcinoma cells; experiment: Proliferation assay, A2780 (crystal violet); type: cell-based; conditions: 96 h, A2780, 4 days, read-out: Inhibition of A2780 cell proliferation IC50
Method: Cultivated tumour cells (HeLa, human cervical tumour cells, ATCC CCL-2; NCI-H460, human non-small cell lung carcinoma cells, ATCC HTB-177; A2780, human ovarian carcinoma cells, ECACC #93112519; DU 145, hormone-independent human prostate carcinoma cells, ATCC HTB-81; HeLa-MaTu-ADR, multidrug-resistant human cervical carcinoma cells, EPO-GmbH Berlin; Caco-2, human colorectal carcinoma cells, ATCC HTB-37; B16F10, mouse melanoma cells, ATCC CRL-6475) were plated at a density of 5,000 cells/well (DU145, HeLa-MaTu-ADR), 3,000 cells/well (NCI-H460, HeLa), 2,500 cells/well (A2780), 1,500 cells/well (Caco-2), or 1,000 cells/well (B16F10) in a 96-well multititer plate in 200 μL of their respective growth medium supplemented 10% fetal calf serum. […] Cell proliferation was determined by staining the cells with crystal violet: the cells were fixed by adding 20 μl/measuring point of an 11% glutaric aldehyde solution for 15 minutes at room temperature. […] The extinction was determined by photometry at a wavelength of 595 nm. The change of cell number, in percent, was calculated by normalization of the measured values to the extinction values of the zero-point plate (=0%) and the extinction of the untreated (0 μm) cells (=100%). […]

[2] = Caco-2 permeation assay; type: in vitro ADME; conditions: human, pH 7.2
Method: 4. Caco-2 Permeation Assay:
Caco-2 cells (purchased from DSMZ Braunschweig, Germany) were seeded at a density of 4.5×10^4 cells per well on 24 well insert plates, 0.4 μm pore size, and grown for 15 days in DMEM medium supplemented with 10% fetal bovine serum, 1% GlutaMAX (100×, GIBCO), 100 U/mL penicillin, 100 μg/mL streptomycin (GIBCO) and 1% non essential amino acids (100×). Cells were maintained at 37° C. in a humified 5% CO2 atmosphere. Medium was changed every 2-3 day. Before running the permeation assay, the culture medium was replaced by a FCS-free hepes-carbonate transport buffer (pH 7.2). For assessment of monolayer integrity the transepithelial electrical resistance (TEER) was measured. Test compounds were predissolved in DMSO and added either to the apical or basolateral compartment in final concentration of 2 μM in transport buffer. Before and after 2 h incubation at 37° C. samples were taken from both compartments. Analysis of compound content was done after precipitation with methanol by LC/MS/MS analysis. Permeability (Papp) was calculated in the apical to basolateral (A→B) and basolateral to apical (B→A) directions. The apparent permeability was calculated using following equation: Papp=(Vr/Po)(1/S)(P2/t)
Where Vr is the volume of medium in the receiver chamber, Po is the measured peak area or height of the test drug in the donor chamber at t=o, S the surface area of the monolayer, P2 is the measured peak area of the test drug in the acceptor chamber after 2 h of incubation, and t is the incubation time. The efflux ratio basolateral (B) to apical (A) was calculated by dividing the Papp B-A by the Papp A-B. In addition the compound recovery was calculated. The following reference compounds were used for the classification of the permeability class: Antipyrine, Pyrazosin, Verapamil, Fluvastatin, Cimetidine, Ranitidine, Atenolol, Sulfasalazine.

[3] = Caco-2 monolayer, 2 μM test compound, 2 h

IC50 [1]: 28 nM
efflux ratio at 2 h, 2 μM ([2]; Papp B-A / Papp A-B, Caco-2, 2 μM test compound): 0.49
Papp A→B at 2 h, 2 μM [2, 3]: 20.7 ×10⁻⁶ cm/s
Papp B→A at 2 h, 2 μM [2, 3]: 10.1 ×10⁻⁶ cm/s
SMILES: COc1cc(F)ccc1-c1cc(Nc2cc(CS(C)(=O)=O)ccn2)ncc1F [Example 1, 5-Fluoro-4-(4-fluoro-2-methoxyphenyl)-N-{4-[(methylsulfonyl)methyl]pyridin-2-yl}pyridin-2-amine]
